For 60 molecules, EC50 results are on record in article PMC10764104, “Discovery of Molecular Glue Degraders via Isogenic Morphological Profiling” (ACS Chemical Biology, 2023).

By EC50 is commonly meant the concentration at which the effect is half-maximal.

In this test the target is T1, recombinant DDB1-CRBN (Homo sapiens, UniProt Q96SW2).
T1 construct: His; made in house; host or cells: High Five insect cells (baculovirus made and propagated in SF9 cells)
The test can be described thus: Fluorescence polarization-based competition assay for CRBN binding. The settings on record: 200 nM CRBN-DDB1, 20 nM pomalidomide-fluorescein tracer 16, triplicates; read-out: FP_CRBN_binding: CRBN binding affinity, EC50. On the procedure: Prior to screening the compound library in the isogenic CPA, we assessed their CRBN binding affinities using a fluorescence-polarization-based competition assay with recombinant DDB1-CRBN and the fluorescent tracer 16 (Figure S2). […] We also assessed the cytotoxicity of the CRBN binders in RKO wild-type (WT) cells to determine the appropriate treatment concentration. […]
Fluorescence Polarization‐based competition assay
Fluorescence Polarization assays were performed in 384‐well, Low Volume, Black, Round Bottom, Polystyrene Nonbinding surface Microplates (Corning, #4514). The test compounds were incubated with 200 nM CRBN‐DDB1 and 20 nM Pomalidomide‐fluorescein tracer 16 in 50 mM Tris‐HCl pH 7.5, 200 mM NaCl, 1 mM DTT, 0.02% Triton X‐ 100, and 0.1 µg/µL Bovine Serum Albumin (Sigma Aldrich, #A7030) in a total volume of 25 µL. Fluorescence polarization values were determined with a PerkinElmer Envision reader with FITC FP dual mirror and FITC FP 480 excitation filter and FITC FP 535 emission filters. Fluorescence polarization values of a 10x serial dilution (10 nM to 100 µM) of the test compounds were determined in triplicates. EC50 values were calculated with GraphPad Prism software (version 10.0.2) with a non‐linear fit function (4PL sigmoidal curve fit) adjusting the bottom constrain to the FP value of free tracer. […]
(In fluorescence polarisation assays a small probe gives low polarisation when free and higher when bound to something large.)
Turning to `CN(Cc1ncc(C2CC2)o1)S(=O)(=O)Oc1cccc(Nc2cccc3c2C(=O)N(C2CCC(=O)NC2=O)C3=O)c1` (stereo not drawn) [FL3-14], the EC50 amounted to 882 nM.

As for `CC1c2cccn2CCN1S(=O)(=O)Oc1cccc(Nc2ccc3c(c2)C(=O)N(C2CCC(=O)NC2=O)C3=O)c1` (stereo not drawn) [FL1-19], the EC50 stood at 898 nM. Then `CC1(C)CN(S(=O)(=O)Oc2cccc(C3CCC(=O)NC3=O)c2)CC2(CCOC2)O1` (stereo not drawn) [FL6-8], with 1340 nM; and `O=C1CCC(c2cccc(OS(=O)(=O)N3CCC(c4ccco4)C3)c2)C(=O)N1` (stereo not drawn) [FL6-12], with 570 nM. For the molecule `CC1(C)CN(S(=O)(=O)Oc2cccc(Nc3cccc4c3C(=O)N(C3CCC(=O)NC3=O)C4=O)c2)CCS1(=O)=O` (stereo not drawn) [FL3-7], the EC50 amounted to 348 nM.

Take `CN(Cc1ncc(C2CC2)o1)S(=O)(=O)Oc1ccc(Nc2cccc3c2C(=O)N(C2CCC(=O)NC2=O)C3=O)cc1` (stereo not drawn) [FL4-14]: the EC50 was 996 nM. Next, `C[C@@H](O)CN(C)S(=O)(=O)Oc1ccc(C2CCC(=O)NC2=O)cc1` (stereo partly drawn) [FL5-1]: 914 nM; `CN(C)c1ncc(CN(C)S(=O)(=O)Oc2ccc(Nc3cccc4c3C(=O)N(C3CCC(=O)NC3=O)C4=O)cc2)cn1` (stereo not drawn) [FL4-18]: 1610 nM. Consider `CN(C1CC1)S(=O)(=O)Oc1ccc(C2CCC(=O)NC2=O)cc1` (stereo not drawn) [FL5-21], for which the EC50 was determined as 899 nM.

In the case of `O=C1CCC(N2C(=O)c3cccc(Nc4ccc(OS(=O)(=O)N5CCC(c6ccncc6)CC5)cc4)c3C2=O)C(=O)N1` (stereo not drawn) [FL4-16], the 50% effective concentration (EC50) is 971 nM. Next, `CC1(C)CN(S(=O)(=O)Oc2ccc(Nc3cccc4c3C(=O)N(C3CCC(=O)NC3=O)C4=O)cc2)CCS1(=O)=O` (stereo not drawn) [FL4-7]: 741 nM; `O=C1CCC(N2C(=O)c3cccc(Nc4cccc(OS(=O)(=O)N5CC(CCO)C5)c4)c3C2=O)C(=O)N1` (stereo not drawn) [FL3-2]: 408 nM. On to `CN(C1CC1)S(=O)(=O)Oc1ccc(Nc2ccc3c(c2)C(=O)N(C2CCC(=O)NC2=O)C3=O)cc1` (stereo not drawn) [FL2-21], for which the 50% effective concentration (EC50) came out at 1140 nM.

For the molecule `O=C1CCC(N2C(=O)c3ccc(Nc4cccc(OS(=O)(=O)N5CC6(CNC(=O)N6)C5)c4)cc3C2=O)C(=O)N1` (stereo not drawn) [FL1-9], the EC50 came out at 435 nM.

On to `CN(Cc1ccc2[nH]nnc2c1)S(=O)(=O)Oc1ccc(Nc2cccc3c2C(=O)N(C2CCC(=O)NC2=O)C3=O)cc1` (stereo not drawn) [FL4-15], for which the EC50 is 2130 nM. For `CC1c2cc(F)ccc2CCN1S(=O)(=O)Oc1ccc(Nc2cccc3c2C(=O)N(C2CCC(=O)NC2=O)C3=O)cc1` (stereo not drawn) [FL4-17], the concentration giving a half-maximal response (EC50) stood at 983 nM. Then `Cc1cn2c(n1)CN(S(=O)(=O)Oc1cccc(Nc3cccc4c3C(=O)N(C3CCC(=O)NC3=O)C4=O)c1)CC2` (stereo not drawn) [FL3-13], with 472 nM; and `CN(Cc1ncc(C2CC2)o1)S(=O)(=O)Oc1cccc(C2CCC(=O)NC2=O)c1` (stereo not drawn) [FL6-14], with 837 nM. Regarding `CN(C)c1ncc(CN(C)S(=O)(=O)Oc2cccc(Nc3cccc4c3C(=O)N(C3CCC(=O)NC3=O)C4=O)c2)cn1` (stereo not drawn) [FL3-18], the EC50 is 676 nM. For `CN(C1CC1)S(=O)(=O)Oc1cccc(Nc2ccc3c(c2)C(=O)N(C2CCC(=O)NC2=O)C3=O)c1` (stereo not drawn) [FL1-21], the EC50 worked out at 1050 nM. Consider `CC(C)(O)C1CCN(S(=O)(=O)Oc2ccc(Nc3ccc4c(c3)C(=O)N(C3CCC(=O)NC3=O)C4=O)cc2)C1` (stereo not drawn) [FL2-4], for which the EC50 was determined as 770 nM.

With `O=C1CCC(N2C(=O)c3cccc(Nc4ccc(OS(=O)(=O)N5C[C@@H](F)[C@H](F)C5)cc4)c3C2=O)C(=O)N1` (stereo partly drawn) [FL4-10], the EC50 turned out to be 830 nM. Regarding `CN(Cc1ccc2c(c1)OCO2)S(=O)(=O)Oc1cccc(Nc2ccc3c(c2)C(=O)N(C2CCC(=O)NC2=O)C3=O)c1` (stereo not drawn) [FL1-20], the EC50 turned out to be 1470 nM. Consider `CC1c2cccn2CCN1S(=O)(=O)Oc1cccc(C2CCC(=O)NC2=O)c1` (stereo not drawn) [FL6-19], for which the EC50 was 874 nM. Take `CC1c2cc(F)ccc2CCN1S(=O)(=O)Oc1ccc(Nc2ccc3c(c2)C(=O)N(C2CCC(=O)NC2=O)C3=O)cc1` (stereo not drawn) [FL2-17]: the EC50 was 1290 nM.

Consider `C[C@@H]1C[C@H](C)CN(S(=O)(=O)Oc2ccc(C3CCC(=O)NC3=O)cc2)C1` (stereo partly drawn) [FL5-6], for which the EC50 is 4690 nM. Next, `C[C@@H]1C[C@H](C)CN(S(=O)(=O)Oc2ccc(Nc3ccc4c(c3)C(=O)N(C3CCC(=O)NC3=O)C4=O)cc2)C1` (stereo partly drawn) [FL2-6]: 4220 nM; `CN(C)c1ncc(CN(C)S(=O)(=O)Oc2cccc(C3CCC(=O)NC3=O)c2)cn1` (stereo not drawn) [FL6-18]: 794 nM. Regarding `CN(Cc1ccc2c(c1)OCO2)S(=O)(=O)Oc1cccc(C2CCC(=O)NC2=O)c1` (stereo not drawn) [FL6-20], the EC50 was 622 nM. Regarding `O=C1CCC(N2C(=O)c3ccc(Nc4cccc(OS(=O)(=O)N5C[C@@H](F)[C@H](F)C5)c4)cc3C2=O)C(=O)N1` (stereo partly drawn) [FL1-10], the EC50 was found to be 607 nM. Take `CC1(C)CN(S(=O)(=O)Oc2cccc(Nc3ccc4c(c3)C(=O)N(C3CCC(=O)NC3=O)C4=O)c2)CCS1(=O)=O` (stereo not drawn) [FL1-7]: the EC50 came to 522 nM. `CN(Cc1ncnn1C)S(=O)(=O)Oc1ccc(Nc2ccc3c(c2)C(=O)N(C2CCC(=O)NC2=O)C3=O)cc1` (stereo not drawn) [FL2-11]: the half-maximal effective concentration (EC50) is 617 nM.

As for `O=C1CCC(c2ccc(OS(=O)(=O)N3CCC(c4ccco4)C3)cc2)C(=O)N1` (stereo not drawn) [FL5-12], the EC50 was found to be 705 nM. With `C[C@@H](O)CN(C)S(=O)(=O)Oc1cccc(C2CCC(=O)NC2=O)c1` (stereo partly drawn) [FL6-1], the EC50 was 584 nM. Then `CC1(C)CN(S(=O)(=O)Oc2cccc(Nc3ccc4c(c3)C(=O)N(C3CCC(=O)NC3=O)C4=O)c2)CC2(CCOC2)O1` (stereo not drawn) [FL1-8], with 930 nM; and `CN(Cc1ccc2c(c1)OCO2)S(=O)(=O)Oc1ccc(Nc2cccc3c2C(=O)N(C2CCC(=O)NC2=O)C3=O)cc1` (stereo not drawn) [FL4-20], with 1720 nM. Turning to `CN(Cc1ccc2c(c1)OCO2)S(=O)(=O)Oc1ccc(Nc2ccc3c(c2)C(=O)N(C2CCC(=O)NC2=O)C3=O)cc1` (stereo not drawn) [FL2-20], the EC50 was 2620 nM. Then `C[C@@H](O)CN(C)S(=O)(=O)Oc1ccc(Nc2ccc3c(c2)C(=O)N(C2CCC(=O)NC2=O)C3=O)cc1` (stereo partly drawn) [FL2-1], with 445 nM; and `CN(C)c1ncc(CN(C)S(=O)(=O)Oc2ccc(C3CCC(=O)NC3=O)cc2)cn1` (stereo not drawn) [FL5-18], with 586 nM. In the case of `CN(Cc1ncnn1C)S(=O)(=O)Oc1cccc(Nc2ccc3c(c2)C(=O)N(C2CCC(=O)NC2=O)C3=O)c1` (stereo not drawn) [FL1-11], the EC50 stood at 509 nM. As for `C[C@@H]1C[C@H](C)CN(S(=O)(=O)Oc2cccc(C3CCC(=O)NC3=O)c2)C1` (stereo partly drawn) [FL6-6], the EC50 was 961 nM. Turning to `CC1c2cccn2CCN1S(=O)(=O)Oc1ccc(Nc2ccc3c(c2)C(=O)N(C2CCC(=O)NC2=O)C3=O)cc1` (stereo not drawn) [FL2-19], the half-maximal effective concentration (EC50) stood at 1050 nM. Consider `O=C1CCC(N2C(=O)c3cccc(Nc4cccc(OS(=O)(=O)N5C[C@@H](F)[C@H](F)C5)c4)c3C2=O)C(=O)N1` (stereo partly drawn) [FL3-10], for which the EC50 turned out to be 582 nM. As for `O=C1CCC(N2C(=O)c3ccc(Nc4ccc(OS(=O)(=O)N5CCOCC5)cc4)cc3C2=O)C(=O)N1` (stereo not drawn) [FL2-5], the EC50 is 458 nM. On to `C[C@@H](O)CN(C)S(=O)(=O)Oc1cccc(Nc2ccc3c(c2)C(=O)N(C2CCC(=O)NC2=O)C3=O)c1` (stereo partly drawn) [FL1-1], for which the EC50 came out at 321 nM. As for `O=C1CCC(c2cccc(OS(=O)(=O)N3C[C@@H](F)[C@H](F)C3)c2)C(=O)N1` (stereo partly drawn) [FL6-10], the EC50 was found to be 1140 nM. Next, `CC1c2cc(F)ccc2CCN1S(=O)(=O)Oc1ccc(C2CCC(=O)NC2=O)cc1` (stereo not drawn) [FL5-17]: 908 nM. Turning to `Cc1cn2c(n1)CN(S(=O)(=O)Oc1ccc(Nc3cccc4c3C(=O)N(C3CCC(=O)NC3=O)C4=O)cc1)CC2` (stereo not drawn) [FL4-13], the EC50 is 463 nM. With `CN(Cc1ccc2[nH]nnc2c1)S(=O)(=O)Oc1ccc(Nc2ccc3c(c2)C(=O)N(C2CCC(=O)NC2=O)C3=O)cc1` (stereo not drawn) [FL2-15], the EC50 turned out to be 1650 nM. In the case of `CC1(C)CN(S(=O)(=O)Oc2ccc(Nc3ccc4c(c3)C(=O)N(C3CCC(=O)NC3=O)C4=O)cc2)CC2(CCOC2)O1` (stereo not drawn) [FL2-8], the EC50 turned out to be 2590 nM. Take `CN(C)c1ncc(CN(C)S(=O)(=O)Oc2ccc(Nc3ccc4c(c3)C(=O)N(C3CCC(=O)NC3=O)C4=O)cc2)cn1` (stereo not drawn) [FL2-18]: the EC50 is 872 nM.

With `CN(Cc1ccc2[nH]nnc2c1)S(=O)(=O)Oc1cccc(Nc2ccc3c(c2)C(=O)N(C2CCC(=O)NC2=O)C3=O)c1` (stereo not drawn) [FL1-15], the EC50 came out at 1170 nM. Take `O=C1CCC(N2C(=O)c3ccc(Nc4ccc(OS(=O)(=O)N5CCC(c6ccco6)C5)cc4)cc3C2=O)C(=O)N1` (stereo not drawn) [FL2-12]: the EC50 amounted to 4780 nM. Then `O=C1CCC(N2C(=O)c3cccc(Nc4cccc(OS(=O)(=O)N5CCC(c6ccco6)C5)c4)c3C2=O)C(=O)N1` (stereo not drawn) [FL3-12], with 2700 nM; and `CC(C)(O)C1CCN(S(=O)(=O)Oc2cccc(C3CCC(=O)NC3=O)c2)C1` (stereo not drawn) [FL6-4], with 1300 nM. Next, `CN(Cc1ccc2[nH]nnc2c1)S(=O)(=O)Oc1cccc(C2CCC(=O)NC2=O)c1` (stereo not drawn) [FL6-15]: 520 nM; `CC1c2cccn2CCN1S(=O)(=O)Oc1ccc(C2CCC(=O)NC2=O)cc1` (stereo not drawn) [FL5-19]: 940 nM; `CC(C)(O)C1CCN(S(=O)(=O)Oc2cccc(Nc3cccc4c3C(=O)N(C3CCC(=O)NC3=O)C4=O)c2)C1` (stereo not drawn) [FL3-4]: 446 nM. Turning to `Cc1cn2c(n1)CN(S(=O)(=O)Oc1ccc(C3CCC(=O)NC3=O)cc1)CC2` (stereo not drawn) [FL5-13], the EC50 amounted to 771 nM. As for `O=C1CCC(c2cccc(OS(=O)(=O)N3CC(CCO)C3)c2)C(=O)N1` (stereo not drawn) [FL6-2], the EC50 turned out to be 1250 nM.
